Laboratory results: patent US20210214681A1, “STEM CELL-DERIVED HUMAN MICROGLIAL CELLS, METHODS OF MAKING AND METHODS OF USE” (MEMORIAL SLOAN-KETTERING CANCER CENTER, priority 2018, published 2021)

Tests used:
hPSCs = experiment: hPSC differentiation to mesoderm and KDR+CD235a+ primitive hematopoietic precursors; format: cell-based, human
Excerpt: Inhibition of Wnt signaling biases early mesoderm cells from the posterior primitive streak to generate KDR+CD235a+ primitive hematopoietic precursors (Sturgeon et al., Nat. Biotechnol. (2014); 32, 554-561). These precursors will go on to initiate primitive hematopoiesis in the yolk sac, giving rise to early EMPs. In this microglial differentiation scheme, the present example adapted Wnt inhibition to induce primitive hematopoiesis from hPSCs in a monolayer strategy. […] These cells were also KDR+ and CD235a+ (primitive hematopoietic precursors) by day 4 of differentiation by flow cytometry. […] Next, the present example developed the timeline of hemogenic endothelium and hematopoietic cell. Hemogenic endothelium developed after 1 day of replating the sorted KDR^+CD235A^+ primitive hematopoietic precursors. These cells gave rise to hematopoietic cells in suspension over 7 days in culture, gradually becoming more numerous in culture (FIG. 2). In order to validate hemogenic endothelium by VE-cadherin+staining, at 1 day post-sort, the cells were positive for VE-cadherin by immunofluorescence confirming that they were hemogenic endothelium, and the cells in suspension had characteristic small nuclei of hematopoietic cells (FIG. 3). […]

rodent GSK3β homologs = details: cited from earlier work
WNT pathway = details: at the level of the pathway activator Porcupine; read-out: IC50 WNT pathway inhibition; cited from earlier work
SW480 cells = details: cited from earlier work
pMacs = experiment: Serum-free maturation of pMacs into macrophages; format: cell-based, human; details: pMacs in IMDM/F12/N2/B27 without serum
Excerpt: In the second strategy to generate microglia, the EMPs were matured into macrophages with 10% serum and M-CSF and IL-34. They developed the mature macrophage marker Cd11b by day 4 in culture, and the mature spindle morphology by day 11 (FIG. 10). All the cells that persisted in culture in serum and M-CSF and IL-34 after 11 days were CD45^+, indicating they were all hematopoietic. The majority also were positive for mature macrophage markers such as CX3CR1, CD14, Cd11b, and dectin by flow cytometry analysis (FIG. 11). The pMacs can also be matured into macrophages without serum, using IMDM/F12/N2/B27 in place of serum along with M-CSF and IL-34 (FIG. 12). […] Macrophage cells co-cultured with neurons yielded microglial cells with branching morphology and increased Iba1 immunofluorescence staining (FIG. 13). Iba1 was increased in microglial cells from macrophages, so the cells had transitioned into microglial identity through co-culture with neurons. Co-cultured pMac-derived microglia (EMP co-culture) and pMac-macrophage derived microglia (EMP-macrophage co-culture) share expression of key microglial genes with human fetal microglia (FIG. 14). Quantitative PCR of RNA from the two different strategies to derive microglia shared gene expression of a panel of key microglial genes with RNA from human fetal microglia (commercial source).

[1] = system: complement C3 release from hPSC-derived microglia cultures; experiment: C3 release in Alzheimer's and H9 control co-cultures (ELISA); format: cell-based, human; details: all cultures, both Alzheimer's and control
Procedure: (§1) hPSC-derived microglia were used to model two neurodegenerative diseases, Alzheimer's and Amyotrophic Lateral Sclerosis (ALS). Mixed cultures of hPSC-derived microglia and Alzheimer's iPSC-derived neurons allowed to observe microglial activation in the disease culture, particularly with respect to increased complement C3 release. […] C3 was measured via ELISA. Additionally, GM-C SF diminished the C3 release in all cultures, both Alzheimer's and control (FIG. 20). […] Amyloid-β burden was decreased in microglial co-cultures with selectivity for amyloid-42 peptide (FIG. 21). […] Increased fluorescence of 42-488 inside microglial cells indicated increased uptake (FIG. 22). […] Switching fluorophores yielded similar result: amyloid-beta 42 was taken up more by microglial cells (FIG. 23). The fluorophores representing amyloid 42 and 40 were switched to make sure the effect of increased 42 brightness within cells was not due to a technical fluorophore brightness effect. Even with the switched fluorophores, in this experiment 42 was tagged to 555 and 40 to 488, there was more 42 brightness within microglial cells via immunofluorescence, corroborating the previous results that microglial cells phagocytosed amyloid-beta 42 selectively.
Culture supernatants were analyzed for C3 using the Millipore Luminex Multiplex Kit on the FlexMap 3D system. […]

[2] = system: hPSC-derived microglial cells; experiment: Amyloid-beta phagocytosis by hPSC-derived microglial cells (FACS); format: cell-based, human; details: flow cytometry
Procedure: as §1

## Cc1c[nH]c(-c2cnc(NCCNc3ccc(C#N)cn3)nc2-c2ccc(Cl)cc2Cl)n1 [CHIR99021, 6-(2-(4-(2,4-dichlorophenyl)-5-(4-methyl-1H-imidazol-2-yl)pyrimidin-2-ylamino)ethylamino)nicotinonitrile]
hPSCs; 18 hr at 3 uM followed by Wnt inhibition via IWP2 at 3 uM, flow cytometry
  percentage of primitive hematopoietic precursors (KDR+CD235a+): highest percentage
hPSCs; eighteen hours of Wnt activation, immunofluorescence
  early mesoderm marked by Brachyury (T): gave rise to early mesoderm
Rodent GSK3β homologs
  IC50 values against rodent GSK3β homologs: nanomolar

## Cc1ccc2nc(NC(=O)CSc3nc4c(c(=O)n3-c3ccccc3)SCC4)sc2c1 [IWP-2, N-(6-methyl-1,3-benzothiazol-2-yl)-2-[(4-oxo-3-phenyl-6,7-dihydrothieno[3,2-d]pyrimidin-2-yl)thio]acetamide]
WNT pathway
  IC50: 27 nM

## Oc1nc(-c2ccc(C(F)(F)F)cc2)nc2c1CSCC2 [XAV939]
SW480 cells
  degradation of β-catenin: promotes the degradation of β-catenin
  protein levels of the axin-GSK3β complex: increases

## GM-CSF: granulocyte-macrophage colony-stimulating factor
pMacs
  cell yield / cell division and appearance: allowed division of the cells as well but the resulting cells appeared more granular and activated
[1]
  C3 release: diminished
[2]
  phagocytosis of amyloid-beta 40: increased
  phagocytosis of amyloid-beta 42: increased
